Experiments:
[1] = target: T1, recombinant human ALK5 (TGF-βR1) protein (Homo sapiens, UniProt P36897); experiment: Biochemical ALK5 (TGF-βR1) assay to measure pKi (LANCE Ultra ULight kinase assay); settings: apparent pKi from pIC50 by Cheng-Prusoff, read-out: ALK5 pKi (converted)
T1 construct: purchased Life Technologies PR9075A
T1 sequence (P36897 34-503): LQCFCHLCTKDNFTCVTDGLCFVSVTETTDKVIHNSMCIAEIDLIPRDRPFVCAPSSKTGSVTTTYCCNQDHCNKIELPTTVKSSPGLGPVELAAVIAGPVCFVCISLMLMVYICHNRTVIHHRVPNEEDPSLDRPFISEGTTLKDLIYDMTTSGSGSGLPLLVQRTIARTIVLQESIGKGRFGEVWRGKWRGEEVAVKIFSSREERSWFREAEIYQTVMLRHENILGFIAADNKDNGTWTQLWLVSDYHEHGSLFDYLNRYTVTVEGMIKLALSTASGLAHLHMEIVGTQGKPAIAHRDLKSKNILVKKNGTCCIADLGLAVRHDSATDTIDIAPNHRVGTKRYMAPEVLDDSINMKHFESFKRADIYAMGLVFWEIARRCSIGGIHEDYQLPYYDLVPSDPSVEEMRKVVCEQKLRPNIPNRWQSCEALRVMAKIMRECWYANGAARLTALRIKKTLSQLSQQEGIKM
Outline: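 Dose range 10 μM–25 pM; enzyme + compound 60 min RT; ATP added (5× stock 125 μM, 2 mM DTT); 60 min 37 °C; stop with EDTA + Eu anti-phospho-Topo IIα Thr1342 Ab; TR-FRET ex 320/340, em 665 nm. 4-param pIC50 → pKi (Cheng-Prusoff).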

[2] = test system: TGF-β-stimulated SMAD3 phosphorylation in BEAS-2B cells; experiment: Cellular ALK5 potency assay, inhibition of TGF-β stimulated pSMAD3 formation in BEAS-2B cells; assay type: cell-based; settings: Homo sapiens; inhibition of TGF-β stimulated pSMAD3 formation, BEAS-2B cells; read-out: BEAS2B pIC50 (converted)
Outline: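 Cells seeded overnight; rinse with supplemented HBSS; compound 1 h at 37 °C; TGF-β 10 ng/mL final, 30 min; lyse; AlphaLISA acceptor and detector beads 2 h apart, read next day. Potency expressed as pIC50.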

Row | Structure (SMILES) | Ki [1] [nM] | IC50 [2] [nM]
1 | Cc1cccc(-c2[nH]ncc2-c2ccc3ncc(C(=O)OC4CCNCC4)cc3n2)n1 [Compound 485, 4-piperidyl 6-[5-(6-methyl-2-pyridyl)-1H-pyrazol-4-yl]-1,5-naphthyridine-3-carboxylate] | 0.0398 to 0.316 | 25.1 to 158
2 | Cc1cccc(-c2[nH]cnc2-c2ccc3ncc(N4CCN(C)C(CC(=O)O)C4)cc3c2)n1 (centres unmarked) [Compound 688, 2-[1-methyl-4-[6-[5-(6-methyl-2-pyridyl)-1H-imidazol-4-yl]-3-quinolyl]piperazin-2-yl]acetic acid] | 0.0398 to 0.316 | 1580 to 10000
3 | Cc1cccc(-c2[nH]cnc2-c2ccc3ncc(-c4cccc(C(=O)O[C@H]5CCN(C)C5)c4)cc3c2)n1 [Compound 522, [(3S)-1-methylpyrrolidin-3-yl] 3-[6-[5-(6-methyl-2-pyridyl)-1H-imidazol-4-yl]-3-quinolyl]benzoate] | 0.0398 to 0.316 | 25.1 to 158
4 | Cc1cccc(-c2n[nH]cc2-c2ccc3nccc(CO)c3n2)n1 [Compound 801, [6-[3-(6-methyl-2-pyridyl)-1H-pyrazol-4-yl]-1,5-naphthyridin-4-yl]methanol] | 0.398 to 3.16 | 200 to 1260
5 | Cc1cccc(-c2[nH]cnc2-c2ccc3ncc(NCCN4CCC5(CC4)CNC5)cc3c2)n1 [Compound 404, N-[2-(2,7-diazaspiro[3.5]nonan-7-yl)ethyl]-6-[5-(6-methyl-2-pyridyl)-1H-imidazol-4-yl]quinolin-3-amine] | 0.0398 to 0.316 | 200 to 1260
6 | Cc1ccc(S(=O)(=O)NCC(=O)Nc2cnc3ccc(-c4c[nH]nc4-c4cccc(C)n4)nc3c2)cc1 [Compound 57, N-[6-[3-(6-methyl-2-pyridyl)-1H-pyrazol-4-yl]-1,5-naphthyridin-3-yl]-2-(p-tolylsulfonylamino)acetamide] | 0.0398 to 0.316 | 25.1 to 158
7 | CNCCn1cc(-c2cnc3ccc(-c4c(-c5cccc(C)n5)[nH]c5ncccc45)cc3c2)cn1 [Compound 306, N-methyl-2-(4-(6-(2-(6-methylpyridin-2-yl)-1H-pyrrolo[2,3-b]pyridin-3-yl)quinolin-3-yl)-1H-pyrazol-1-yl)ethan-1-amine] | < 0.0316 | 25.1 to 158
8 | Cc1cccc(-c2[nH]cnc2-c2ccc3ncc(-c4cnn(CCN)c4)cc3c2)n1 [Compound 572, 2-[4-[6-[5-(6-methyl-2-pyridyl)-1H-imidazol-4-yl]-3-quinolyl]pyrazol-1-yl]ethanamine] | 0.0398 to 0.316 | 25.1 to 158
9 | Cc1cccc(-c2n[nH]cc2-c2ccc3nccc(N4CCNCC4)c3c2)n1 [Compound 868, 6-[3-(6-methyl-2-pyridyl)-1H-pyrazol-4-yl]-4-piperazin-1-yl-quinoline] | 0.398 to 3.16 | 25.1 to 158
10 | Cc1nc(-c2n[nH]cc2-c2ccc3ncc(-c4ncn5c4CNCC5)cc3n2)ccc1F [Compound 107, 2-[3-(5-fluoro-6-methyl-2-pyridyl)-1H-pyrazol-4-yl]-7-(5,6,7,8-tetrahydroimidazo[1,5-a]pyrazin-1-yl)-1,5-naphthyridine] | 0.0398 to 0.316 | 25.1 to 158
11 | Cc1cccc(-c2[nH]cnc2-c2ccc3ncc(-c4csc(C(=O)O)c4)cc3c2)n1 [Compound 798, 4-(6-(5-(6-methylpyridin-2-yl)-1H-imidazol-4-yl)quinolin-3-yl)thiophene-2-carboxylic acid] | 0.0398 to 0.316 | 1580 to 10000
12 | Cc1cccc(-c2[nH]ncc2-c2ccc3nccc(C(=O)OC[C@@H]4CCCCN4)c3c2)n1 [Compound 1085, [(2S)-2-piperidyl]methyl 6-[5-(6-methyl-2-pyridyl)-1H-pyrazol-4-yl]quinoline-4-carboxylate] | 0.398 to 3.16 | 25.1 to 158
13 | Cc1cccc(-c2nc3ccccn3c2-c2ccc3ncc(-c4cnn(CCN)c4)cc3n2)n1 [Compound 660, 2-[4-[6-[2-(6-methyl-2-pyridyl)imidazo[1,2-a]pyridin-3-yl]-1,5-naphthyridin-3-yl]pyrazol-1-yl]ethanamine] | 0.0398 to 0.316 | 25.1 to 158

Continued, in another order:

Row | Ki [1] [nM] | Structure (SMILES) | IC50 [2] [nM]
14 | 0.0398 to 0.316 | Cc1cccc(-c2n[nH]cc2-c2ccc3ncc(-c4cnc5n4CCCN5)cc3n2)n1 [Compound 655, 2-[3-(6-methyl-2-pyridyl)-1H-pyrazol-4-yl]-7-(5,6,7,8-tetrahydroimidazo[1,2-a]pyrimidin-3-yl)-1,5-naphthyridine] | 25.1 to 158
15 | < 0.0316 | Cc1cccc(-c2n[nH]cc2-c2ccc3ncc(N4CCC(N5CCOCC5)CC4)cc3n2)n1 [Compound 250, 4-[1-[6-[3-(6-methyl-2-pyridyl)-1H-pyrazol-4-yl]-1,5-naphthyridin-3-yl]-4-piperidyl]morpholine] | 25.1 to 158
16 | < 0.0316 | CNC1CCN(c2cnc3ccc(-c4c[nH]nc4-c4ccc(F)c(C)n4)nc3c2)CC1 [Compound 264, 1-[6-[3-(5-fluoro-6-methyl-2-pyridyl)-1H-pyrazol-4-yl]-1,5-naphthyridin-3-yl]-N-methyl-piperidin-4-amine] | 25.1 to 158
17 | 0.0398 to 0.316 | Cc1cccc(-c2n[nH]cc2-c2ccc3ncc(N4C[C@@H](C)N(C)C[C@H]4C)cc3n2)n1 (racemic) [Compound 296, 2-[3-(6-methyl-2-pyridyl)-1H-pyrazol-4-yl]-7-[rac-(2R,5R)-2,4,5-trimethylpiperazin-1-yl]-1,5-naphthyridine] | 25.1 to 158
18 | 0.0398 to 0.316 | Cc1cccc(-c2n[nH]cc2-c2ccc3ncc(NCC4CCCNC4)cc3n2)n1 (centres unmarked) [Compound 199, 6-[3-(6-methyl-2-pyridyl)-1H-pyrazol-4-yl]-N-(3-piperidylmethyl)-1,5-naphthyridin-3-amine] | 200 to 1260
19 | 0.398 to 3.16 | Cc1cccc(-c2n[nH]cc2-c2ccc3ncc(CNCCCN4CCOCC4)cc3n2)n1 [Compound 155, N-[[6-[3-(6-methyl-2-pyridyl)-1H-pyrazol-4-yl]-1,5-naphthyridin-3-yl]methyl]-3-morpholino-propan-1-amine] | 25.1 to 158
20 | 0.0398 to 0.316 | Cc1cccc(-c2n[nH]cc2-c2ccc3ncc(N4CCCN(C5CCNCC5)CC4)cc3n2)n1 [Compound 638, 2-[3-(6-methyl-2-pyridyl)-1H-pyrazol-4-yl]-7-[4-(4-piperidyl)-1,4-diazepan-1-yl]-1,5-naphthyridine] | 1580 to 10000
21 | < 0.0316 | Cc1cccc(-c2n[nH]cc2-c2ccc3ncc(-c4cn(C)nn4)cc3n2)n1 [Compound 71, 2-[3-(6-methyl-2-pyridyl)-1H-pyrazol-4-yl]-7-(1-methyltriazol-4-yl)-1,5-naphthyridine] | 25.1 to 158
22 | 0.0398 to 0.316 | Cc1cccc(-c2n[nH]cc2-c2ccc3ncc(O)cc3n2)n1 [Compound 694, 6-[3-(6-methyl-2-pyridyl)-1H-pyrazol-4-yl]-1,5-naphthyridin-3-ol] | < 20
23 | 0.0398 to 0.316 | Cc1cccc(-c2n[nH]cc2-c2ccc3ncc(-c4cnco4)cc3n2)n1 [Compound 317, 5-[6-[3-(6-methyl-2-pyridyl)-1H-pyrazol-4-yl]-1,5-naphthyridin-3-yl]oxazole] | < 20
24 | 0.0398 to 0.316 | Cc1cccc(-c2n[nH]cc2-c2ccc3ncc(-c4cncnc4)cc3n2)n1 [Compound 416, 2-[3-(6-methyl-2-pyridyl)-1H-pyrazol-4-yl]-7-pyrimidin-5-yl-1,5-naphthyridine] | < 20
25 | < 0.0316 | Cc1cccc(-c2n[nH]cc2-c2ccc3ncc(C4=CCC(NC(C)C)CC4)cc3n2)n1 (centres unmarked) [Compound 417, N-isopropyl-4-[6-[3-(6-methyl-2-pyridyl)-1H-pyrazol-4-yl]-1,5-naphthyridin-3-yl]cyclohex-3-en-1-amine] | 25.1 to 158

— patent US11590116B2 (THERAVANCE BIOPHARMA R&D IP, LLC, priority 2019, dated 2023)
